*1 amine or outer side, *2 acyl side, *3 side chain or, on linkers, in order; H or OH if unused. Where a SMILES comes first, the peptide text is derived from it. Bridges are numbered along the chain shown (N, C = ends). Roman numbers before positions name the chains, in order. [ ]: non-standard residue; d: D form. Actinocin(9to1) = Cc1c2oc3c(C)ccc(C(=O)[*:1])c3nc-2c(C(=O)[*:2])c(N)c1=O; NMeV = CN[C@H](C(=O)O)C(C)C; Sar = CNCC(=O)O
Columns and labels:
interferon response [1] = tested on: interferon response
interferon response [2] = details: pretreatment of the cells; cited from earlier work

Cc1c2oc3c(C)ccc(C(=O)N[C@@H]4C(=O)N[C@H](C(C)C)C(=O)N5CCC[C@H]5C(=O)N(C)CC(=O)N(C)[C@@H](C(C)C)C(=O)O[C@@H]4C)c3nc-2c(C(=O)N[C@@H]2C(=O)N[C@H](C(C)C)C(=O)N3CCC[C@H]3C(=O)N(C)CC(=O)N(C)[C@@H](C(C)C)C(=O)O[C@@H]2C)c(N)c1=O [actinomycin D] (I: T[dV]P[Sar][NMeV] / II: T[dV]P[Sar][NMeV]; ester I:1-I:C, II:1-II:C; linker I:N-II:N via Actinocin(9to1))
effect on virus yield relative to control cultures (interferon response [1]): substantial increase in virus yield
toxicity to the cells (interferon response [1]): relatively toxic to the cells
effect on interferon response (interferon response [2]): blocks the interferon response
